The supplement of paper PMC10307832

Key:
Experiment in all cases: relative viability (nuclei count vs DMSO), 5 days (fraction); higher = more cells survive
XMD8-85 + Navitoclax = compound: CN1CCN(CC1)C2=CC(=C(C=C2)NC3=NC=C4C(=N3)N(C5=CC=CC=C5C(=O)N4C)C)OC [XMD8-85] + CC1(C)CCC(c2ccc(Cl)cc2)=C(CN2CCN(c3ccc(C(=O)NS(=O)(=O)c4ccc(N[C@H](CCN5CCOCC5)CSc5ccccc5)c(S(=O)(=O)C(F)(F)F)c4)cc3)CC2)C1 [Navitoclax] (partner 0.5 µM)
Outline: (§1)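 Lung cancer cell lines, seeded in 1536-well plates, were treated the following day by pin tool with a single drug or with five library-drug doses (not always all listed) in √10 steps on top of a fixed anchor-drug dose. Cells were fixed and nuclei stained in one step after 5 days, and nuclei were counted. Relative viability is the nuclei count for treated wells divided by that for vehicle wells, reported as medians of duplicate plates.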

XMD8-85 + Foretinib = compound: CN1CCN(CC1)C2=CC(=C(C=C2)NC3=NC=C4C(=N3)N(C5=CC=CC=C5C(=O)N4C)C)OC [XMD8-85] + COc1cc2c(Oc3ccc(NC(=O)C4(C(=O)Nc5ccc(F)cc5)CC4)cc3F)ccnc2cc1OCCCN1CCOCC1 [Foretinib] (partner 0.25 µM)
Outline: as §1

4EGI-1 = compound: O=C(O)C(Cc1ccccc1[N+](=O)[O-])=NNc1nc(-c2ccc(Cl)c(Cl)c2)cs1 (mixture of isomers) [4EGI-1]
Outline: (§2)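 Five library-drug doses, separated by factors of √10, were pinned into 1536-well plates holding lung cancer cell lines after an overnight stay at 37 °C. Cells were fixed, permeabilised and Hoechst-stained in one step after 5 days without medium change, then imaged at 4×. Viability compares treated-well with vehicle-well nuclei, counted in MetaXpress, as a median across plates. Passing plates had control CV below 25% and at least one doubling.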

XMD8-85 = compound: CN1CCN(CC1)C2=CC(=C(C=C2)NC3=NC=C4C(=N3)N(C5=CC=CC=C5C(=O)N4C)C)OC [XMD8-85]
Outline: as §2

Cell Line	relative viability (XMD8-85 + Navitoclax; first compound 0.08 µM)	relative viability (XMD8-85 + Navitoclax; first compound 0.253 µM)	relative viability (XMD8-85 + Navitoclax; first compound 0.8 µM)	relative viability (XMD8-85 + Navitoclax; first compound 2.53 µM)	relative viability (XMD8-85 + Navitoclax; first compound 8 µM)	relative viability (XMD8-85 + Foretinib; first compound 0.08 µM)	relative viability (XMD8-85 + Foretinib; first compound 0.253 µM)	relative viability (XMD8-85 + Foretinib; first compound 0.8 µM)	relative viability (XMD8-85 + Foretinib; first compound 2.53 µM)	relative viability (XMD8-85 + Foretinib; first compound 8 µM)	relative viability (4EGI-1; 0.5 µM)	relative viability (4EGI-1; 1.581 µM)	relative viability (4EGI-1; 5 µM)	relative viability (4EGI-1; 15.81 µM)	relative viability (4EGI-1; 50 µM)	relative viability (XMD8-85; 0.08 µM)	relative viability (XMD8-85; 0.253 µM)	relative viability (XMD8-85; 0.8 µM)	relative viability (XMD8-85; 2.53 µM)	relative viability (XMD8-85; 8 µM)
HARA	1.17	1.15	1.13	1	0.443	1.09	0.701	0.97	0.782	0.583	1.07	1	1.07	0.765	0.257	0.95	0.976	0.902	1.03	0.611
NCI-H2085	1.16	1.11	1.12	1.04	0.789	0.902	0.854	0.823	0.751	0.563	1.06	1.01	1.03	0.799	0.663	0.945	0.966	0.995	0.935	0.856
NCI-H838	1.15	1.13	1.16	1.15	0.536	0.941	1	1.08	0.91	0.569	1.03		1.02	0.912	0.342	0.951	1.02	0.997	0.937	0.754
NCI-H647	1.35	1.19	1.27	1.14	0.556	1.37	1.3	1.34	1.04	0.865	1.01		1.1	0.855	0.446	0.991	0.912	1.01	1.06	0.758
NCI-H1651	1.09	1	1.13	0.976	0.849	0.857	0.769	0.712	0.799	0.631	1.03	0.906	1.01	0.95	0.753	1.06	0.983	0.978	0.959	0.926
NCI-H322M	1.21	1.1	1.34	1.2	1.05	0.733	0.856	1.01	0.8	0.631	0.94		1.05	0.75	0.5	0.906	0.937	0.939	0.97	0.621
LU99A	0.857	0.689	0.888	0.892	0.44	0.768		0.761	0.854	0.597	0.989	0.859	0.999	0.885	0.564	0.895	1	1	0.973	0.831
PC-14	1.01	1.02	1.03	0.959	0.628	0.953	0.826	0.881	1.03	0.851	1.01		1.05	0.341	0.395	0.996	0.906	0.984	1.03	0.587
SK-MES-1	1.22	1.33	1.06	1.19	0.866	0.888	0.712	0.875	1	0.57	1.09	0.944	0.983	0.759	0.691	1.03	1.03	0.938	0.951	0.556
NCI-H2347	0.757	0.852		0.809	0.63	0.75	0.836	0.829	1.07	0.758	1.14	0.965	1.02	1.03	0.823	1.03	0.973	1.04	1.03	0.809
NCI-H1395	1.09	1.18	1.3	1.03	1.02	1.03	0.974	1.05	0.925	0.8	1.02		1.2	0.929	0.614	0.893	0.884	0.889	1.01	0.561
SK-LU-1	0.839	0.795	1.1	0.888	0.293	0.845	0.825	0.841	0.772	0.674	1.12	1.11	1.14	0.998	0.58	0.921	1.07	1.08	1.06	0.96
NCI-H1437	1.16	1.16	1.13	0.979	0.591	1.3	1.28	1.32	1.08	0.867	1.04	0.969	0.947	0.592	0.326	1	1.01	1.01	0.99	0.747
NCI-H596	1.04	1.13	1.07	0.68	0.377	0.844	0.85	0.983	0.642	0.502	1.19	0.788	1.14	0.954	0.594	0.946	0.942	1.03	0.987	0.696
PC-3 [JPC-3]	0.796	0.785	0.861	0.966	0.769	1.05	1.04	1.04	1.19	0.912	1.01	0.991	1		0.691	1.06	1.03	0.993	1.11	0.942
RERF-LC-KJ	0.712	0.96	0.982	1.03	0.565	0.84	0.762	0.877	0.877	0.849	1.1	0.629	0.936	0.805	0.637	0.992	0.939	1.07	1.13	0.82
